Laboratory results from patent US12606528B2, “Methods and materials for inhibiting NF-kB activity” (University of Pittsburgh - Of the Commonwealth System of …, priority 2019, dated 2026).
Like-named read-outs stand apart in the source and are kept apart here.

What was measured:
[1] = system: NF-κB; assay: NF-κB assay: THP1-NF-κB-LUC cells, LPS-stimulated secreted luciferase; assay type: cell-based; details: THP1-NF-κB-LUC cells, read-out: IC50 (NF-κB assay)
Outline: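 THP1-NF-κB-LUC cells (25k/well) were pretreated with compounds for 2 h, then stimulated with LPS (10 ng/mL) for 18 h. Secreted luciferase was measured and normalized to vehicle, and IC50 was fitted from the concentration series.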

[2] = system: TNF release; assay: TNF assay: TNF release from LPS-stimulated human PBMCs (TNF ELISA); assay type: cell-based; details: PBMC, read-out: IC50 (TNF assay)
Outline: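 TNF ELISA on supernatants read-out; cells were 10k human PBMCs/well given LPS at 10 ng/mL for 18 h after a 2 h compound pre-incubation across a concentration series, with IC50 derived for suppression of TNF secretion.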

[3] = compounds 2 hours before LPS (10 ng/mL) for 18 hours, secreted luciferase
[4] = human PBMCs, compounds 2 hours before LPS (10 ng/ml) for 18 hours, supernatant TNF ELISA
[5] = LPS-stimulated human PBMCs, TNF ELISA

| SMILES | IC50 [1, 3] [nM] | IC50 [2, 4] [µM] | IC50 ([1]; LPS-stimulated) [nM] | IC50 [2, 5] [µM] |
| --- | --- | --- | --- | --- |
| O=C1COc2c(cc(Br)cc2S(=O)(=O)NC2CCC(O)CC2)N1 (stereo not drawn) [BC19381] | > 10000 | > 10 | – | – |
| O=C1COc2c(cc(Br)cc2S(=O)(=O)NCc2ccc(C(F)(F)F)cc2)N1 [BC19382] | > 10000 | > 10 | – | – |
| O=C1COc2c(cc(Br)cc2S(=O)(=O)NCCc2ccc(OC(F)(F)F)cc2)N1 [BC19383] | > 10000 | > 10 | – | – |
| O=C1COc2c(cc(Br)cc2S(=O)(=O)Nc2ccc(C(F)(F)F)cc2Cl)N1 [BC19384] | < 100 | > 10 | – | – |
| O=C1COc2c(cc(Br)cc2S(=O)(=O)NCc2ccc(OC(F)(F)F)cc2)N1 [BC19385] | > 10000 | > 10 | – | – |
| O=C1COc2c(cc(Br)cc2S(=O)(=O)NCc2ccc(F)cc2F)N1 [BC19386] | > 10000 | > 10 | – | – |
| O=C1COc2cc(S(=O)(=O)NCCc3ccc(OC(F)(F)F)cc3)c(Br)cc2N1 [BC19387] | > 10000 | > 10 | – | – |
| CC(C)(C)C1CCC(NS(=O)(=O)c2cc3c(cc2Br)NC(=O)CO3)CC1 (stereo not drawn) [BC19388] | > 10000 | > 10 | – | – |
| O=C1COc2cc(S(=O)(=O)NC3CCC(O)CC3)c(Br)cc2N1 (stereo not drawn) [BC19389] | > 10000 | > 10 | – | – |
| O=C1COc2cc(S(=O)(=O)Nc3ccc(C(F)(F)F)cc3Cl)c(Br)cc2N1 [BC19390] | 1000 to 10000 | > 10 | – | – |
| O=C1COc2cc(S(=O)(=O)NCc3ccc(C(F)(F)F)cc3)c(Br)cc2N1 [BC19391] | > 10000 | > 10 | – | – |
| O=C1COc2cc(S(=O)(=O)NCc3ccc(OC(F)(F)F)cc3)c(Br)cc2N1 [BC19392] | > 10000 | > 10 | – | – |
| O=C1COc2cc(S(=O)(=O)NCc3ccc(F)cc3F)c(Br)cc2N1 [BC19393] | > 10000 | > 10 | – | – |
| CC1Oc2c(cc(Cl)cc2S(=O)(=O)Nc2ccc(OC(F)(F)F)cc2)NC1=O (stereo not drawn) [BC19394] | < 100 | > 10 | – | – |
| CN1CCN(C(=O)c2ccc3nc(-c4ccc(F)cc4)c(S(=O)(=O)c4cccc(F)c4)nc3c2)CC1 [BC19395] | – | – | 100 to 1000 | < 0.1 |
| OCCn1cc(-c2ccc3nc(-c4ccc(F)cc4)c(-c4ccc(F)cc4)nc3c2)nn1 [BC19396] | – | – | < 100 | > 10 |
| C#CC(=O)Nc1ccc2nc(-c3ccc(F)cc3)c(-c3ccc(F)cc3)nc2c1 [BC19397] | – | – | < 100 | 0.1 to 1 |
| CN1CCN(C(=O)c2ccc3nc(-c4ccc(F)cc4)c(-c4ccc(Cl)cc4Cl)nc3c2)CC1 [BC19398] | – | – | 100 to 1000 | > 10 |
| CN1CCN(C(=O)c2ccc3nc(-c4ccc(F)cc4)c(-c4ccc(OC(F)(F)F)cc4)nc3c2)CC1 [BC19399] | – | – | > 10000 | > 10 |
| CN1CCN(C(=O)c2cccc3nc(-c4ccc(F)cc4)c(-c4ccc(F)cc4)nc23)CC1 [BC19400] | – | – | > 10000 | > 10 |
| Cn1cc(-c2cnc3nc(-c4ccc(F)cc4)c(-c4ccc(F)cc4)nc3c2)nn1 [BC19401] | – | – | < 100 | > 10 |
| CCCn1cc(-c2cnc3nc(-c4ccc(F)cc4)c(-c4ccc(F)cc4)nc3c2)nn1 [BC19402] | – | – | < 100 | > 10 |
| Fc1ccc(-c2nc3cccnc3nc2-c2ccc(F)cc2)cc1 [BC19403] | – | – | 100 to 1000 | > 10 |
| OCCn1ncc(-c2ccc3nc(-c4ccc(F)cc4)c(-c4ccc(F)cc4)nc3c2)n1 [BC19404] | – | – | 1000 to 10000 | > 10 |
| CN1CCN(C(=O)c2ccc3nc(-c4ccc(F)cc4F)c(-c4ccccc4)nc3c2)CC1 [BC19405] | – | – | 100 to 1000 | > 10 |
| C#CCNC(=O)c1ccc2nc(-c3ccc(F)cc3F)c(-c3ccccc3)nc2c1 [BC19406] | – | – | 100 to 1000 | > 10 |

| SMILES | IC50 [1, 3] [nM] | IC50 [2, 4] [µM] | IC50 ([1]; LPS-stimulated) [nM] | IC50 [2, 5] [µM] |
| --- | --- | --- | --- | --- |
| O=C(O)c1cnc2nc(-c3ccc(F)cc3)c(-c3ccc(F)cc3)nc2c1 [BC19407] | – | – | 100 to 1000 | > 10 |
| CN1CCN(C(=O)c2cnc3nc(-c4ccc(F)cc4)c(-c4ccc(F)cc4)nc3c2)CC1 [BC19408] | – | – | 100 to 1000 | > 10 |
| O=c1c(S(=O)(=O)c2cccc(F)c2)c(O)[nH]c2ncccc12 [BC19409] | > 10000 | > 10 | – | – |
| COc1cccc(-c2nc(S(=O)(=O)c3ccc(Cl)cc3)c(S(C)(=O)=O)[nH]2)c1 [BC19410] | – | – | 100 to 1000 | > 10 |
| CC(C)S(=O)(=O)c1oc(-c2cccc(F)c2)nc1S(=O)(=O)c1ccc(Cl)cc1 [BC19411] | – | – | < 100 | < 0.1 |
| O=S(=O)(c1ccc(Cl)cc1)c1nc(-c2cccc(F)c2)oc1S(=O)(=O)C1CCCCC1 [BC19412] | – | – | 100 to 1000 | 0.1 to 1 |
| C[S+]([O-])c1sc(-c2ccc(F)cc2)nc1S(=O)(=O)c1ccc(Cl)cc1 (stereo not drawn) [BC19413] | – | – | > 10000 | 1 to 10 |
| CCC[S+]([O-])c1sc(-c2ccc(F)cc2)nc1S(=O)(=O)c1ccc(Cl)cc1 (stereo not drawn) [BC19414] | – | – | > 10000 | > 10 |
| CC(C)[S+]([O-])c1sc(-c2ccc(F)cc2)nc1S(=O)(=O)c1ccc(Cl)cc1 (stereo not drawn) [BC19415] | – | – | > 10000 | 1 to 10 |
| O=S(=O)(c1ccc(Cl)cc1)c1nc(-c2ccc(F)cc2)sc1[S+]([O-])CC1CC1 (stereo not drawn) [BC19416] | – | – | > 10000 | > 10 |
| CCC[S+]([O-])c1oc(-c2ccc(Cl)cc2)nc1S(=O)(=O)c1ccc(Cl)cc1 (stereo not drawn) [BC19417] | – | – | 100 to 1000 | 1 to 10 |
| CCCS(=O)(=O)c1oc(-c2ccc(Cl)cc2)nc1S(=O)(=O)c1ccc(Cl)cc1 [BC19418] | – | – | 1000 to 10000 | 1 to 10 |
| CC(C)CS(=O)(=O)c1oc(-c2ccc(Cl)cc2)nc1S(=O)(=O)c1ccc(Cl)cc1 [BC19419] | – | – | 1000 to 10000 | 0.1 to 1 |
| COCC[S+]([O-])c1[nH]c(-c2ccccc2)nc1S(=O)(=O)c1ccc(Cl)cc1 (stereo not drawn) [BC19420] | – | – | > 10000 | > 10 |
| CCS(=O)(=O)c1cc2c(c(S(=O)(=O)Nc3ccc(F)c(F)c3)c1)OCC(=O)N2 [BC19421] | < 100 | > 10 | – | – |
| CS(=O)(=O)c1cc2c(c(S(=O)(=O)Nc3ccc(OC(F)(F)F)cc3)c1)OCC(=O)N2 [BC19422] | < 100 | > 10 | – | – |
| Cc1ccc(NS(=O)(=O)c2cc(S(C)(=O)=O)cc3c2OCC(=O)N3)cc1F [BC19423] | < 100 | > 10 | – | – |
| CC(C)c1ccc(NS(=O)(=O)c2cc(S(C)(=O)=O)cc3c2OCC(=O)N3)cc1 [BC19424] | < 100 | > 10 | – | – |
| CS(=O)(=O)c1cc2c(c(S(=O)(=O)Nc3ccc(F)cc3F)c1)OCC(=O)N2 [BC19425] | < 100 | > 10 | – | – |
| CS(=O)(=O)c1cc2c(c(S(=O)(=O)Nc3cccc(F)c3)c1)OCC(=O)N2 [BC19426] | < 100 | > 10 | – | – |
| CS(=O)(=O)c1cc2c(c(S(=O)(=O)Nc3cccc(Cl)c3)c1)OCC(=O)N2 [BC19427] | < 100 | > 10 | – | – |
| CS(=O)(=O)c1cc2c(c(S(=O)(=O)Nc3ccc(F)cc3Cl)c1)OCC(=O)N2 [BC19428] | 100 to 1000 | > 10 | – | – |
| COc1ccc(NS(=O)(=O)c2cc(S(C)(=O)=O)cc3c2OCC(=O)N3)cc1Cl [BC19429] | > 10000 | > 10 | – | – |
| CS(=O)(=O)c1cc2c(c(S(=O)(=O)Nc3ccc(F)cc3)c1)OCC(=O)N2 [BC19430] | < 100 | > 10 | – | – |
| CS(=O)(=O)c1cc2c(c(S(=O)(=O)Nc3ccc(C#N)cc3)c1)OCC(=O)N2 [BC19431] | < 100 | > 10 | – | – |
